Publication PMC9714921 (PLOS Pathogens, 2022)
Values joined by “and” are separate entries in the source; they are usually repeats but may differ in a detail not shown here. Identical values can stand only once. Like-named read-outs stand apart in the source and are kept apart here.

Assays:
[1] = target: Asu-ACR-16 (Ascaris suum, UniProt F1KYJ9); test: cell-based; type: cell-based
Protocol: (§1) cRNA for oocyte injection was prepared with the mMESSAGE mMACHINE T7 kit following manufacturers protocol (Ambion, USA). Concentration was determined using a Nanodrop spectrophotometer. Desired subunit combinations with associated accessory proteins were mixed and diluted with nuclease-free water to a final concentration of 250 ng/uL for each construct.
(§2) Adult female X. laevis oocyte extraction was performed in accordance with the McGill University Animal Use Protocol 2015–7758 following standard protocol. Briefly, frog ovary lobes were placed in a Ca^2+-free OR2 solution (82 mM NaCl, 2 mM KCl, 1 mM MgCl2, 5 mM HEPES buffer, pH 7.3) and manually divided into clusters of <10 oocytes with thin tweezers followed by a 90-minute incubation in 10 mg/mL collagenase type II (Sigma-Aldrich, USA). Oocytes were washed in Ca^2+-free OR2 and placed ND96 solution (NaCl 96 mM, KCl 2 mM, CaCl2 1.8 mM, MgCl2 1 mM and HEPES 5 mM, pH 7.3) supplemented with sodium pyruvate 2.5 mM [86] and incubated at 18°C until cRNA injection. Oocytes were injected with 50 nL (12.5 ng of each injected gene) of the desired cRNA subunit and accessory protein combination mix with the NanojectII (Drummond Scientific, USA). Following injection, oocytes were incubated in ND96 buffer at 18°C until electrophysiology. All electrophysiology was conducted two days post-injection, except for the expression analysis assay in which oocytes were measured every day after injection for three consecutive days.
(§3) All drugs were dissolved in recording solution (NaCl 100 mM, KCl 2.5 mM, CaCl2 1 mM, HEPES 5 mM, pH 7.3) to a stock concentration of 10 mM and diluted to their final recording concentrations. Oxantel and bephenium were first dissolved in DMSO to ensure a final recording concentration contained less than 0.1% DMSO. For agonist profiling, all drugs were diluted to a concentration of 100 μM.
Oocytes were placed individually in an RC3Z chamber (Harvard Apparatus, USA) submerged in recording solution (NaCl 100 mM, KCl 2.5 mM, CaCl2 1 mM, HEPES 5 mM, pH 7.3). The RC3Z chamber was connected to a perfusion system containing recording solution and ligand solutions. Pulled glass capillaries (World Precision Instruments, USA) were filled with 3M KCl and the tips clipped and checked for appropriate resistance (between 0.5 and 5 MΩ). A 3M KCl agar bridge grounded the oocyte bath chamber. Measurements were made using an Axon Axoclamp 900A amplifier with Digidata1550M. […] Ligand solutions were applied to the oocytes with an approximate flow rate of 1.2 m/s and current responses measured. Oocytes were exposed to the ligand solution until a distinct current peak was observed followed by a wash with the recording solution until current returned to baseline for a minimum of 10 seconds until the next ligand exposure. For BAPTA-AM exposed oocytes, oocytes were incubated in 100 μM BAPTA-AM for four hours prior to electrophysiology recording. Data was analyzed using Clampex 9.2 (Axon Instruments, USA) and statistical analysis and graphs produced in Prism (GraphPad version 9.1). T-tests were used to compare responses with error bars representing standard error. For concentration-response curves, individual oocyte current response to the different ligand concentrations were normalized to the response obtained with 300 μM. Data was fit using the Graphpad “log(agonist) vs normalized response–variable slope” equation, with 95% confidence intervals being reported. […] For examples of oocyte responses, recordings were filtered in Clampfit using the lowband pass at 40 Hz cutoff.

[2] = target: Bma-ACR-16-asuICL chimera (Brugia malayi; Ascaris suum, UniProt A0A4E9FSR7+F1KYJ9); type: cell-based, B. malayi (A. suum ICL)
Protocol: (§4) B. malayi acr-16 and accessory proteins ric-3, unc-50, unc-74 and molo-1 were cloned from adult female B. malayi cDNA received as a gift from Dr. T. Geary using the primers described in S1 Table. B. malayi eat-18 was prepared from two overlapping oligonucleotide primers. Other subunits were synthesized from their predicted genome sequence (Gene Universal, USA) (S2 Table). […] All sequences were cloned into the pTD2 oocyte expression vector. Asu-ACR-16 and Tzc-ACR-16 chimeras were constructed using appropriate restriction enzymes, reciprocal exchange through ligation and confirmed by sequencing (McLab, USA).
as §1, §2, §3
(§5) Oocytes were placed individually in an RC3Z chamber (Harvard Apparatus, USA) submerged in recording solution (NaCl 100 mM, KCl 2.5 mM, CaCl2 1 mM, HEPES 5 mM, pH 7.3). The RC3Z chamber was connected to a perfusion system containing recording solution and ligand solutions. Pulled glass capillaries (World Precision Instruments, USA) were filled with 3M KCl and the tips clipped and checked for appropriate resistance (between 0.5 and 5 MΩ). A 3M KCl agar bridge grounded the oocyte bath chamber. Measurements were made using an Axon Axoclamp 900A amplifier with Digidata1550M. […] Ligand solutions were applied to the oocytes with an approximate flow rate of 1.2 m/s and current responses measured. Oocytes were exposed to the ligand solution until a distinct current peak was observed followed by a wash with the recording solution until current returned to baseline for a minimum of 10 seconds until the next ligand exposure. For BAPTA-AM exposed oocytes, oocytes were incubated in 100 μM BAPTA-AM for four hours prior to electrophysiology recording. Data was analyzed using Clampex 9.2 (Axon Instruments, USA) and statistical analysis and graphs produced in Prism (GraphPad version 9.1). T-tests were used to compare responses with error bars representing standard error. For concentration-response curves, individual oocyte current response to the different ligand concentrations were normalized to the response obtained with 300 μM.

[3] = target: Asu-ACR-16-bmaICL chimera (Ascaris suum; Brugia malayi, UniProt A0A4E9FSR7+F1KYJ9); type: cell-based, A. suum (B. malayi ICL); settings: listed as acetylcholine
Protocol: as §4, §1, §2
All drugs were dissolved in recording solution (NaCl 100 mM, KCl 2.5 mM, CaCl2 1 mM, HEPES 5 mM, pH 7.3) to a stock concentration of 10 mM and diluted to their final recording concentrations. […]
Oocytes were placed individually in an RC3Z chamber (Harvard Apparatus, USA) submerged in recording solution (NaCl 100 mM, KCl 2.5 mM, CaCl2 1 mM, HEPES 5 mM, pH 7.3). […] Ligand solutions were applied to the oocytes with an approximate flow rate of 1.2 m/s and current responses measured. […] Data was analyzed using Clampex 9.2 (Axon Instruments, USA) and statistical analysis and graphs produced in Prism (GraphPad version 9.1). […]

[4] = tested on: TZC-ECD (T. callipaeda ECD in Asu-ACR-16); test: Voltage-clamp electrophysiology, A. suum/T. callipaeda ACR-16 chimera in oocytes; type: cell-based; settings: S2C Fig
Protocol: as §4, §1, §2, §3, §5

[5] = tested on: T. suis N-AChR; settings: read-out: EC50 μM ACh; accessory protein Ric-3; ref [34]; cited from earlier work
[6] = tested on: N. americanus N-AChR; settings: read-out: EC50 μM ACh; accessory protein Ric-3; ref [33]; cited from earlier work
[7] = co-injected: Bma-ric-3 (reference condition)
[8] = co-injected: Bma-ric-3 (reference condition), listed as acetylcholine
[9] = co-injected: Bma-ric-3 + Cel-emc-6

CC(=O)OCC[N+](C)(C)C [ACh, acetylcholine]
response to 100 μM acetylcholine normalized to Day 3 response ([1]; Day 1 post-injection): 44 ± 5%
response to 100 μM acetylcholine normalized to Day 3 response ([1]; Day 2 post-injection): 88 ± 5%
current response to 100 μM acetylcholine ([1]; No accessory protein): 24 ± 10 nA
current response to 100 μM acetylcholine ([1]; No accessory protein, listed as acetylcholine): 24 ± 10 (n=11) nA
current response to 100 μM acetylcholine [1, 7]: 2023 ± 68 nA
current response to 100 μM acetylcholine [1, 8]: 2023 ± 68 (n=11) nA
current response to 100 μM acetylcholine ([1]; co-injected: Bma-ric-3 + Bma-eat-18): 3152 ± 102 (n=13) nA
current response to 100 μM acetylcholine ([1]; co-injected: Bma-ric-3 + Bma-molo-1): 1425 ± 55 (n=15) nA
current response to 100 μM acetylcholine ([1]; co-injected: Bma-ric-3 + Bma-unc-50 + Bma-unc-74): 2606 ± 183 (n=10) nA
current response to 100 μM acetylcholine ([1]; co-injected: Bma-ric-3 + Bma-unc-50 + Bma-unc-74 + Bma-eat-18): 2166 ± 87 (n=12) ns nA
current response to 100 μM acetylcholine [1, 9]: 2582 ± 89 (n=12) nA
current response to 100 μM acetylcholine ([1]; co-injected: Bma-ric-3 + Cel-nra-2 + Cel-nra-4): 2849 ± 152 (n=14) nA
current response to 100 μM acetylcholine ([1]; co-injected: Hco-ric-3): 2000–2200 nA and 2052 ± 70 nA
current response to 100 μM acetylcholine ([1]; co-injected: Hco-ric-3, listed as acetylcholine): 2052 ± 66 nA and 2052 ± 66 (n=13) ns nA
current response to 100 μM acetylcholine ([2]; No accessory protein): 0 ± 0 (n=15) nA
current response to 100 μM acetylcholine [2, 8]: 59 ±43 nA and 59 ± 12 (n=14) nA
current response to 100 μM acetylcholine ([2]; co-injected: Bma-ric-3 + Bma-emc-6 + Cel-nra-2 + Cel-nra-4, listed as acetylcholine): 1 ± 2 nA and 1 ± 1 (n=11) nA
current response to 100 μM acetylcholine [2, 9]: 37 ± 12 (n=15) ns nA
current response to 100 μM acetylcholine ([2]; co-injected: Bma-ric-3 + Cel-nra-2 + Cel-nra-4, listed as acetylcholine): 47 ± 18 (n=14) ns nA
current response to 100 μM acetylcholine ([2]; co-injected: Bma-ric-3 + Cel-nra-2, listed as acetylcholine): 256 ± 89 (n=11) nA
current response to 100 μM acetylcholine ([3]; No accessory protein): 22 ± 4 (n=14) nA
current response to 100 μM acetylcholine [3, 7]: 3021 ± 444 nA and 3021 ± 128 (n=12) nA
current response to 100 μM acetylcholine ([3]; co-injected: Bma-ric-3 + Cel-nra-2): 2181 ± 99 (n=14) nA
response to ACh [4]: 42 ± 9 nA
EC50 [5]: 14.5 ± 1.03 µM
EC50 [6]: 170 ± 19.2 µM
